According to US20160158317A1, “Antimicrobial Peptide Variants and Polynucleotides Encoding Same” (Adenium Biotech A/S, priority 2010, published 2016):
Where a SMILES comes first, the peptide text is derived from it. Bridges are numbered along the chain shown (N, C = ends).

Test: Determination of the protein binding (90% serum, 30 kDa filter, HPLC)
Format: in vitro ADME
Conditions: serum
Method: Protein binding assays were performed as follows. The purified peptides were mixed with 90% serum and centrifuged through a 30 kDa filter. The ultra-filtrate and the non filtrated serum samples were quantified by HPLC measurements and the protein binding was subsequently calculated.

SMILES | fraction unbound
CC(C)[C@@H]1NC(=O)CNC(=O)[C@H](CC(N)=O)NC(=O)[C@H](CCCNC(=N)N)NC(=O)[C@H](CCCCN)NC(=O)[C@H](C(C)C)NC(=O)[C@@H]2CSSC[C@H](NC(=O)[C@H](C(C)C)NC(=O)[C@H](CCCNC(=N)N)NC1=O)C(=O)N[C@@H](Cc1c[nH]cn1)C(=O)N[C@@H](CCCNC(=N)N)C(=O)N[C@@H](CCCNC(=N)N)C(=O)N[C@H](C(=O)N[C@@H](CC(N)=O)C(=O)O)CSSC[C@H](NC(=O)[C@H](Cc1ccccc1)NC(=O)CN)C(=O)N[C@@H](Cc1ccccc1)C(=O)N[C@@H](Cc1ccc(O)cc1)C(=O)N[C@@H](C(C)C)C(=O)N2 [compound 137] (H-GFCFYVCVKRNGVRVCHRRCN-OH; disulfide 3-20, 7-16 (inferred); N-terminus and C-terminus assumed) | 0.14
CC(C)[C@@H]1NC(=O)CNC(=O)[C@H](CC(N)=O)NC(=O)[C@H](CCCNC(=N)N)NC(=O)[C@H](Cc2ccc(O)cc2)NC(=O)[C@H](C(C)C)NC(=O)[C@@H]2CSSC[C@H](NC(=O)[C@H](C(C)C)NC(=O)[C@H](CCCNC(=N)N)NC1=O)C(=O)N[C@@H](Cc1ccc(O)cc1)C(=O)N[C@@H](CCCNC(=N)N)C(=O)N[C@@H](CCCNC(=N)N)C(=O)N[C@H](C(=O)N[C@@H](CO)C(=O)O)CSSC[C@H](NC(=O)[C@H](Cc1ccccc1)NC(=O)CN)C(=O)NCC(=O)N[C@@H](Cc1c[nH]cn1)C(=O)N[C@@H](C(C)C)C(=O)N2 [compound 144] (H-GFCGHVCVYRNGVRVCYRRCS-OH; disulfide 3-20, 7-16 (inferred); N-terminus and C-terminus assumed) | 0.32
CC(C)[C@@H]1NC(=O)CNC(=O)[C@H](CC(N)=O)NC(=O)[C@H](CCCNC(=N)N)NC(=O)[C@H](Cc2ccc(O)cc2)NC(=O)[C@H](C(C)C)NC(=O)[C@@H]2CSSC[C@H](NC(=O)[C@H](CCCNC(=N)N)NC(=O)[C@H](CCCNC(=N)N)NC1=O)C(=O)N[C@@H](Cc1ccc(O)cc1)C(=O)N[C@@H](CCCNC(=N)N)C(=O)N[C@@H](CCCNC(=N)N)C(=O)N[C@H](C(=O)N[C@@H](CC(N)=O)C(=O)O)CSSC[C@H](NC(=O)[C@H](Cc1ccccc1)NC(=O)CN)C(=O)NCC(=O)N[C@@H](Cc1c[nH]cn1)C(=O)N[C@@H](C(C)C)C(=O)N2 [compound 155] (H-GFCGHVCVYRNGVRRCYRRCN-OH; disulfide 3-20, 7-16 (inferred); N-terminus and C-terminus assumed) | 0.17
CC(C)[C@@H]1NC(=O)CNC(=O)[C@H](CC(N)=O)NC(=O)[C@H](CCCNC(=N)N)NC(=O)[C@H](Cc2ccc(O)cc2)NC(=O)[C@H](C(C)C)NC(=O)[C@@H]2CSSC[C@H](NC(=O)[C@H](CCCNC(=N)N)NC(=O)[C@H](CCCNC(=N)N)NC1=O)C(=O)N[C@@H](Cc1ccc(O)cc1)C(=O)N[C@@H](CCCNC(=N)N)C(=O)N[C@@H](CCCNC(=N)N)C(=O)N[C@H](C(=O)N[C@@H](CC(N)=O)C(=O)O)CSSC[C@H](NC(=O)[C@H](Cc1ccccc1)NC(=O)CN)C(=O)NCC(=O)N[C@@H](CCCNC(=N)N)C(=O)N[C@@H](C(C)C)C(=O)N2 [compound 170] (H-GFCGRVCVYRNGVRRCYRRCN-OH; disulfide 3-20, 7-16 (inferred); N-terminus and C-terminus assumed) | 0.13
CC(C)[C@@H]1NC(=O)CNC(=O)[C@H](CC(N)=O)NC(=O)[C@H](CCCNC(=N)N)NC(=O)[C@H](Cc2ccc(O)cc2)NC(=O)[C@H](C(C)C)NC(=O)[C@@H]2CSSC[C@H](NC(=O)[C@H]([C@@H](C)O)NC(=O)[C@H](CCCNC(=N)N)NC1=O)C(=O)N[C@@H](Cc1ccc(O)cc1)C(=O)N[C@@H](CCCNC(=N)N)C(=O)N[C@@H](CCCNC(=N)N)C(=O)N[C@H](C(=O)N[C@@H](CC(N)=O)C(=O)O)CSSC[C@H](NC(=O)[C@H](Cc1ccccc1)NC(=O)CN)C(=O)NCC(=O)N[C@@H](CCCNC(=N)N)C(=O)N[C@@H](C(C)C)C(=O)N2 [compound 171] (H-GFCGRVCVYRNGVRTCYRRCN-OH; disulfide 3-20, 7-16) | 0.16
CC(C)[C@@H]1NC(=O)CNC(=O)[C@H](CC(N)=O)NC(=O)[C@H](CCCNC(=N)N)NC(=O)[C@H](CCCNC(=N)N)NC(=O)[C@H](C(C)C)NC(=O)[C@@H]2CSSC[C@H](NC(=O)[C@H](C(C)C)NC(=O)[C@H](CCCNC(=N)N)NC1=O)C(=O)N[C@@H](Cc1ccc(O)cc1)C(=O)N[C@@H](CCCNC(=N)N)C(=O)N[C@@H](CCCNC(=N)N)C(=O)N[C@H](C(=O)N[C@@H](CC(N)=O)C(=O)O)CSSC[C@H](NC(=O)[C@H](Cc1ccccc1)NC(=O)CN)C(=O)NCC(=O)N[C@@H](CCCNC(=N)N)C(=O)N[C@@H](C(C)C)C(=O)N2 [compound 172] (H-GFCGRVCVRRNGVRVCYRRCN-OH; disulfide 3-20, 7-16 (inferred); N-terminus and C-terminus assumed) | 0.12
CC(C)[C@@H]1NC(=O)CNC(=O)[C@H](CC(N)=O)NC(=O)[C@H](CCCNC(=N)N)NC(=O)[C@H](CCCCN)NC(=O)[C@H](C(C)C)NC(=O)[C@@H]2CSSC[C@H](NC(=O)[C@H](CCCCN)NC(=O)[C@H](CCCNC(=N)N)NC1=O)C(=O)N[C@@H](Cc1ccc(O)cc1)C(=O)N[C@@H](CCCNC(=N)N)C(=O)N[C@@H](CCCNC(=N)N)C(=O)N[C@H](C(=O)N[C@@H](CC(N)=O)C(=O)O)CSSC[C@H](NC(=O)[C@H](Cc1ccccc1)NC(=O)CN)C(=O)N[C@@H]([C@@H](C)O)C(=O)N[C@@H](Cc1ccc(O)cc1)C(=O)N[C@@H](C(C)C)C(=O)N2 [compound 195] (H-GFCTYVCVKRNGVRKCYRRCN-OH; disulfide 3-20, 7-16 (inferred); N-terminus and C-terminus assumed) | 0.05
CC(C)[C@@H]1NC(=O)CNC(=O)[C@H](CC(N)=O)NC(=O)[C@H](CCCNC(=N)N)NC(=O)[C@H](Cc2ccc(O)cc2)NC(=O)[C@H](C(C)C)NC(=O)[C@@H]2CSSC[C@H](NC(=O)[C@H](CO)NC(=O)[C@H](CCCNC(=N)N)NC1=O)C(=O)N[C@@H](Cc1ccc(O)cc1)C(=O)N[C@@H](CCCNC(=N)N)C(=O)N[C@@H](CCCNC(=N)N)C(=O)N[C@H](C(=O)N[C@@H](CC(N)=O)C(=O)O)CSSC[C@H](NC(=O)[C@H](Cc1ccccc1)NC(=O)CN)C(=O)N[C@@H](Cc1ccc(O)cc1)C(=O)N[C@@H](CCCCN)C(=O)N[C@@H](C(C)C)C(=O)N2 [compound 206] (H-GFCYKVCVYRNGVRSCYRRCN-OH; disulfide 3-20, 7-16 (inferred); N-terminus and C-terminus assumed) | 0.14
CC(C)[C@@H]1NC(=O)CNC(=O)[C@H](CC(N)=O)NC(=O)[C@H](CCCNC(=N)N)NC(=O)[C@H](Cc2ccc(O)cc2)NC(=O)[C@H](C(C)C)NC(=O)[C@@H]2CSSC[C@H](NC(=O)[C@H](CCCNC(=N)N)NC(=O)[C@H](CCCNC(=N)N)NC1=O)C(=O)N[C@@H](Cc1ccc(O)cc1)C(=O)N[C@@H](CCCNC(=N)N)C(=O)N[C@@H](CCCNC(=N)N)C(=O)N[C@H](C(=O)N[C@@H](CC(N)=O)C(=O)O)CSSC[C@H](NC(=O)[C@H](Cc1ccccc1)NC(=O)CN)C(=O)N[C@@H](Cc1ccc(O)cc1)C(=O)N[C@@H](CC(N)=O)C(=O)N[C@@H](C(C)C)C(=O)N2 [compound 207] (H-GFCYNVCVYRNGVRRCYRRCN-OH; disulfide 3-20, 7-16 (inferred); N-terminus and C-terminus assumed) | 0.09
CC(C)[C@@H]1NC(=O)CNC(=O)[C@H](CC(N)=O)NC(=O)[C@H](CCCNC(=N)N)NC(=O)[C@H](Cc2ccc(O)cc2)NC(=O)[C@H](C(C)C)NC(=O)[C@@H]2CSSC[C@H](NC(=O)[C@H]([C@@H](C)O)NC(=O)[C@H](CCCNC(=N)N)NC1=O)C(=O)N[C@@H](Cc1ccc(O)cc1)C(=O)N[C@@H](CCCNC(=N)N)C(=O)N[C@@H](CCCNC(=N)N)C(=O)N[C@H](C(=O)N[C@@H](CC(N)=O)C(=O)O)CSSC[C@H](NC(=O)[C@H](Cc1ccccc1)NC(=O)CN)C(=O)N[C@@H](Cc1ccc(O)cc1)C(=O)N[C@@H](CCCNC(=N)N)C(=O)N[C@@H](C(C)C)C(=O)N2 [compound 209] (H-GFCYRVCVYRNGVRTCYRRCN-OH; disulfide 3-20, 7-16 (inferred); N-terminus and C-terminus assumed) | 0.11
CC(C)[C@@H]1NC(=O)CNC(=O)[C@H](CC(N)=O)NC(=O)[C@H](CCCNC(=N)N)NC(=O)[C@H](Cc2ccc(O)cc2)NC(=O)[C@H](C(C)C)NC(=O)[C@@H]2CSSC[C@H](NC(=O)[C@H](C(C)C)NC(=O)[C@H](CCCNC(=N)N)NC1=O)C(=O)N[C@@H](Cc1c[nH]cn1)C(=O)N[C@@H](CCCNC(=N)N)C(=O)N[C@@H](CCCNC(=N)N)C(=O)N[C@H](C(=O)N[C@@H](CC(N)=O)C(=O)O)CSSC[C@H](NC(=O)[C@H](Cc1ccccc1)NC(=O)CN)C(=O)N[C@@H](Cc1ccc(O)cc1)C(=O)N[C@@H](CCCNC(=N)N)C(=O)N[C@@H](C(C)C)C(=O)N2 [compound 210] (H-GFCYRVCVYRNGVRVCHRRCN-OH; disulfide 3-20, 7-16 (inferred); N-terminus and C-terminus assumed) | 0.11
CC(C)[C@@H]1NC(=O)CNC(=O)[C@H](CC(N)=O)NC(=O)[C@H](CCCNC(=N)N)NC(=O)[C@H](Cc2ccc(O)cc2)NC(=O)[C@H](C(C)C)NC(=O)[C@@H]2CSSC[C@H](NC(=O)[C@H](C(C)C)NC(=O)[C@H](CCCNC(=N)N)NC1=O)C(=O)N[C@@H](CO)C(=O)N[C@@H](CCCNC(=N)N)C(=O)N[C@@H](CCCNC(=N)N)C(=O)N[C@H](C(=O)N[C@@H](CC(N)=O)C(=O)O)CSSC[C@H](NC(=O)[C@H](Cc1ccccc1)NC(=O)CN)C(=O)N[C@@H](Cc1ccc(O)cc1)C(=O)N[C@@H](CCCNC(=N)N)C(=O)N[C@@H](C(C)C)C(=O)N2 [compound 211] (H-GFCYRVCVYRNGVRVCSRRCN-OH; disulfide 3-20, 7-16 (inferred); N-terminus and C-terminus assumed) | 0.04
